# Assays:
# [1] = test system: HSV-1 acyclovir-resistant mutant strain PAA^r 5; experiment: Acyclovir-resistant HSV-1 cutaneous infection in immunodeficient nu/nu mice, strain PAAr 5; type: in vivo, female nu/nu mice
# Description: (§1) Animals were cutaneously inoculated with 10^7 PFU pf HSV-1 acyclovir resistant mutant viruses. The resulting cutaneous lesions were scored according to a subjective scoring system. The compound of Group 1 (Entry No. 29 in table 1) was administered orally (gavage) in an acidified vehicle (0.033 N aqueous HCl, tid for 10 days). Animals were similarly treated with acyclovir in 0.033 N aqueous HCl or only with the vehicle (0.033 N aqueous HCl). […] The dose-dependent effect of treatment with Entry No. 29 at 25 mg/kg/day (-.diamond-solid.-), 50 mg/kg/day (-.tangle-solidup.-), 75 mg/kg/day (-.quadrature.-), 100 mg/kg/day (-.circle-solid.-) or 125 mg/kg/day (-.box-solid.-), compared to treatment with vehicle alone (-.smallcircle.-), is shown in FIG. 2. The ED50 of Entry No. 29 was about 60 mg/kg/day. Similar experiments were done using the HSV-1 acyclovir-resistant mutant strain dlsptk (FIGS. 3 and 4). […] The dose-dependent effect of treatment with Entry No. 29 at 25 mg/kg/day (-.diamond-solid.-), 50 mg/kg/day (-.tangle-solidup.-), 75 mg/kg/day (-.quadrature.-), 100 mg/kg/day (-.circle-solid.-) or 125 mg/kg/day (-.box-solid.-), compared to treatment with vehicle alone (-.smallcircle.-), is shown in FIG. 4. […]
# HSV-2 HG-52 = experiment: Mouse genital model, vaginal HSV-2 infection, oral administration; type: in vivo, Swiss Webster mouse; conditions: Human alphaherpesvirus 2, 3 h, Group 1 Table 1 entries, commencing three hours post infection, read-out: ED50, reduction of viral pathology
# Description: Antiviral activity for Group 1 compounds was also observed in the mouse genital model of R. W. Sidwell et al., supra. Vaginal HSV-2 infection in the Swiss Webster mouse was initiated by vaginal irritation and instillation of HSV-2 (HSV-2 HG-52, 1×10^7 PFU). Viral pathology was measured as described above.
# HSV-1 strain F or KOS = experiment: Inhibition of herpes simplex virus (HSV-1) replication in cell culture (BHK-21 cells, glycoprotein C ELISA); type: cell-based
# How it was run: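 Replication readout: ELISA for HSV-1 late glycoprotein C (mAb C11, peroxidase-OPD, 450 nm) on glutaraldehyde-fixed cells. Monolayers (~50,000 cells/well) were infected with strain F or KOS (MOI 0.05 PFU/cell), then incubated 24 h at 37° with compound in 2% FBS α-MEM. EC50 derived from % inhibition.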
# HSV-1 helicase-primase = biological target: T1, HSV-1 helicase-primase (Human herpesvirus 1, UniProt P10189+P10236); experiment: HSV-1 DNA-dependent ATPase assay (inhibition of HSV-1 helicase-primase); type: biochemical
# T1 construct: made in house; host or cells: Sf21 insect cells triply infected with recombinant baculoviruses (UL5, UL8, UL52)
# How it was run: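 ATP hydrolysis was measured as inorganic phosphate (malachite green/molybdate, 650 nm) after 20 min at 34°. Reaction: 3 μg/mL purified Sf21-expressed UL5/UL8/UL52 helicase-primase, 25 μM single-stranded M13 DNA hybridized to 68-mer, 4 mM ATP, pH 7.5 HEPES buffer, 3.3% DMSO. Net absorbance change with and without inhibitor gave DNA-dependent ATPase activity.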
# HCMV (strain AD169) [2] = experiment: Inhibition of HCMV replication, ELISA assay (Hs-68 cells); type: cell-based, Human Cytomegalovirus (HCMV); conditions: read-out: ELISA CMV EC50
# How it was run: (§2)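 EC50 derived from % inhibition of viral replication, read as p28 late-protein ELISA signal (mAb UL99, peroxidase/OPD, 450 nm) on fixed cells. Read-out came 8 days post-infection at 37 °C in DMEM with 5% FBS plus compound, after 2 h adsorption of AD169 at MOI 0.01 PFU/cell onto near-confluent Hs-68 cells.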
# [3] = as above; type: cell-based, Human Cytomegalovirus (HCMV); conditions: human, read-out: Cytotoxic at this concentration (footnote *, ELISA CMV column)
# How it was run: as §2
# HCMV (strain AD169) [4] = experiment: Inhibition of HCMV replication, plaque reduction assay (PRA, Hs-68 cells); type: cell-based, Human Cytomegalovirus (HCMV); conditions: read-out: PRA CMV EC50
# How it was run: (§3)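 Hs-68 monolayers (80–90% confluent) were infected with ~50 PFU HCMV AD169 for 2 h at 37°, then given compound in DMEM/5% inactivated FBS, refreshed after 4 days and kept 4 more days. Plaques were counted after formaldehyde fixation and crystal violet staining. EC50 derives from percent plaque reduction versus untreated wells.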
# [5] = as above; type: cell-based, Human Cytomegalovirus (HCMV); conditions: human
# How it was run: as §3
# [6] = test system: HSV-1 acyclovir-resistant mutant strain dlsptk; experiment: Acyclovir-resistant HSV-1 cutaneous infection in immunodeficient nu/nu mice, strain dlsptk; type: in vivo, female nu/nu mice; conditions: oral gavage 100 mg/kg/day, tid for 10 days; strain dlsptk (FIG. 3)
# Description: as §1
# [7] = Human betaherpesvirus 5, AD169, Hs68, Group 2 Table 2 entries
# [8] = Human betaherpesvirus 5, AD169, Hs68, Group 1 Table 2 entries
# [9] = Human betaherpesvirus 5, AD169, Hs68, Group 1 Table 1 entries
# T1 sequence (P10192 whole entry): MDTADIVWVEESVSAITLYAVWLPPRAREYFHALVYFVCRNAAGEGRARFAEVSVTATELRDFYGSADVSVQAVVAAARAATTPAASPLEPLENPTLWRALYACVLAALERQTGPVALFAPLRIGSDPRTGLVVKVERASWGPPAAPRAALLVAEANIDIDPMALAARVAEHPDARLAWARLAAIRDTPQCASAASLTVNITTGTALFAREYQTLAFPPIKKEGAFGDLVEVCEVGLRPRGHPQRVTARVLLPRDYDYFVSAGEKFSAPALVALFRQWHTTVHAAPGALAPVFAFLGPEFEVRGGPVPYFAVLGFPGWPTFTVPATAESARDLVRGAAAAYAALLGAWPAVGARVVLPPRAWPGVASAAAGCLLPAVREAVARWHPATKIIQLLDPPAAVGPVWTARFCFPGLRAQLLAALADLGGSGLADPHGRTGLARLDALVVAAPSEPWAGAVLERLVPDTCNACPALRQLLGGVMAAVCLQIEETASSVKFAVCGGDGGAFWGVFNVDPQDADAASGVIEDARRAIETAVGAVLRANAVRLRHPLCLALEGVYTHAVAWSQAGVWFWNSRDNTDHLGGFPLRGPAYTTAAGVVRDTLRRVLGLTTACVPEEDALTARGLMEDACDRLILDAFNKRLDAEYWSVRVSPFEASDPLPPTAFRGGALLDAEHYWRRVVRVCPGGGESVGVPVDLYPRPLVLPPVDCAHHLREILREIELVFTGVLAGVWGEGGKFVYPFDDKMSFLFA
# T1 sequence (P10236 whole entry): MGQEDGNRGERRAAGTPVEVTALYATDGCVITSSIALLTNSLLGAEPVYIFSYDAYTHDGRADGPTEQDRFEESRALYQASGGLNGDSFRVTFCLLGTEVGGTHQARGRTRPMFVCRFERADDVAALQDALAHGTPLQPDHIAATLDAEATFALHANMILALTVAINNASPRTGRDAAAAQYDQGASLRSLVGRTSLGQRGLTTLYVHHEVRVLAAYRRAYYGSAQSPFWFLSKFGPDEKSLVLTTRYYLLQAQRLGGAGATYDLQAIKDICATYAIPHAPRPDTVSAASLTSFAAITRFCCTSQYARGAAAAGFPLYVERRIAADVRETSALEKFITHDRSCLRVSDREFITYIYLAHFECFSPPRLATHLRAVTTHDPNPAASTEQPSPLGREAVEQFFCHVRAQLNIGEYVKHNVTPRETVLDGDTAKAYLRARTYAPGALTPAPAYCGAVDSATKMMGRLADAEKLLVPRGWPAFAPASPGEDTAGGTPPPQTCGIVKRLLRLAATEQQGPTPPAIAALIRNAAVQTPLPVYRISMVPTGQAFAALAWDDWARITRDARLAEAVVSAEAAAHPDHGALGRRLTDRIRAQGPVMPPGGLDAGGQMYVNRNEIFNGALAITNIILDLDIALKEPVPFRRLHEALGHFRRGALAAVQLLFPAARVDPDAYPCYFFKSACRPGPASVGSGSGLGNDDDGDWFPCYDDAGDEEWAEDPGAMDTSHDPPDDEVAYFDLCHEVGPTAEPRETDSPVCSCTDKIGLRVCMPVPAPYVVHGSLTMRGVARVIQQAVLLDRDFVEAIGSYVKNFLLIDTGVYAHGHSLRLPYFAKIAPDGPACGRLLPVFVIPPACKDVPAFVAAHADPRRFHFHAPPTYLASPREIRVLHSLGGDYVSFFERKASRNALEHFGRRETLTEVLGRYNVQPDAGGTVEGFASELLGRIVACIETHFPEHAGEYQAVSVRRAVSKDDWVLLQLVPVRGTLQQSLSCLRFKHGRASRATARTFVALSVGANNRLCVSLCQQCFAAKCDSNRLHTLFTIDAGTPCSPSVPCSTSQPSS
# T1 sequence (P10189 whole entry): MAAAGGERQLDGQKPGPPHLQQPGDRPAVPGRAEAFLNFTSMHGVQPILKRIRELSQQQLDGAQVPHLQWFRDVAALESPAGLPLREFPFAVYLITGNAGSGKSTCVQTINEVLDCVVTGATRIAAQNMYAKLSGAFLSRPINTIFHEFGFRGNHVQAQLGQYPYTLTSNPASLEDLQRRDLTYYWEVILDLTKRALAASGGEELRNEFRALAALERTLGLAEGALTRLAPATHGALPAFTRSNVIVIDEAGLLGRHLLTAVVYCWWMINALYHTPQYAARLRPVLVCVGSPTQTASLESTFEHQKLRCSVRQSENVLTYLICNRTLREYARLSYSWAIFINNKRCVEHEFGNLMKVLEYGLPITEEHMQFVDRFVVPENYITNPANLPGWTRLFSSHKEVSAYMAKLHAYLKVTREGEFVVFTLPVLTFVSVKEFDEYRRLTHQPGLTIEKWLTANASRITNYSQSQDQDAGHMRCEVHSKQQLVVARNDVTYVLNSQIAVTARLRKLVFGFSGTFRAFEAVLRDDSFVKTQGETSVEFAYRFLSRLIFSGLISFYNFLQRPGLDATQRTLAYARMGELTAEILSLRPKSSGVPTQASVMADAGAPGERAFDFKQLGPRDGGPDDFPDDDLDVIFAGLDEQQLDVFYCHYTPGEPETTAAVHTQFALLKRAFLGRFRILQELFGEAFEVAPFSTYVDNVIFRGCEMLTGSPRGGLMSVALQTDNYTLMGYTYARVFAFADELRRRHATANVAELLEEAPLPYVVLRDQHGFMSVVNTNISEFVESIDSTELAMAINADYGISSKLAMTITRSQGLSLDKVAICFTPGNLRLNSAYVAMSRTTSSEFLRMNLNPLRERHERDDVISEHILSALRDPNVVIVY
compound,measurement,setting,value
Nc1nc(-c2ccc(NC(=O)CN(Cc3ccccc3)C(=O)c3ccncc3)cc2)cs1 [Entry 29],ED50,"[1]; Human alphaherpesvirus 1, po, 240 h, read-out: ED50, cutaneous lesions",~60 mg/kg
same,ED50,HSV-2 HG-52,60 mg/kg
Nc1nc(-c2ccc(NC(=O)[C@H](Cc3ccccc3)NC(=O)C3CCCCC3)cc2)cs1 [Example 1],EC50,"HSV-1 strain F or KOS; Human alphaherpesvirus 1, BHK-21, Group 1 Table 5 entries",0.079 µM
same,IC50,HSV-1 helicase-primase; Group 1 Table 5 entries,0.052 µM
same,EC50,"HCMV (strain AD169) [2]; Human betaherpesvirus 5, AD169, Hs68, Group 1 Table 5 entries",14 µM
same,MCC at 192 h,[3]; Group 1 Table 5 entries,14 µM
Nc1nc(-c2ccc(NC(=O)C(=O)N(Cc3ccccc3)Cc3ccccc3)cc2)cs1 [Example 2],EC50,"HSV-1 strain F or KOS; Human alphaherpesvirus 1, BHK-21, Group 2 Table 2 entries",0.77 µM
same,EC50,HCMV (strain AD169) [4]; [7],12 µM
same,MCC at 192 h,"[5]; Group 2 Table 2 entries, read-out: Cytotoxic at this concentration (footnote *, PRA CMV)",12 µM
same,EC50,HCMV (strain AD169) [2]; [7],10 µM
CC(C)(C)OC(=O)N(CCC(=O)Nc1ccc(-c2csc(N)n2)cc1)C1CCc2ccccc21 (stereo not drawn) [Example 13],EC50,"HSV-1 strain F or KOS; Human alphaherpesvirus 1, BHK-21, Group 1 Table 2 entries",3.4 µM
same,EC50,HCMV (strain AD169) [4]; [8],9 µM
same,MCC at 192 h,"[5]; Group 1 Table 2 entries, read-out: Cytotoxic at this concentration (footnote, PRA CMV)",9 µM
same,EC50,HCMV (strain AD169) [2]; [8],37 µM
CCCC(CCC)N(CC(=O)Nc1ccc(-c2csc(N)n2)cc1)C(=O)OC(C)(C)C [Example 111],EC50,"HSV-1 strain F or KOS; Human alphaherpesvirus 1, BHK-21, Group 1 Table 1 entries",0.24 µM
same,IC50,HSV-1 helicase-primase; Group 1 Table 1 entries,0.37 µM
same,EC50,HCMV (strain AD169) [2]; [9],4 µM
same,MCC at 192 h,[3]; Group 1 Table 1 entries,4 µM
Cc1ccccc1CN(CC(=O)Nc1ccc(-c2csc(N)n2)cc1)C(=O)Cc1ccccn1 [Example 127],IC50,HSV-1 helicase-primase; Group 1 Table 1 entries,0.99 µM
same,EC50,HCMV (strain AD169) [4]; [9],25 µM
same,MCC at 192 h,"[5]; Group 1 Table 1 entries, read-out: Cytotoxic at this concentration (footnote *, PRA CMV)",25 µM
same,EC50,HCMV (strain AD169) [2]; [9],8.8 µM
"Nc1nc2c(ncn2COCCO)c(=O)[nH]1 [acyclovir, reference compound]",effect on cutaneous lesions,"[1]; oral gavage 100 mg/kg/day, tid for 10 days, strain PAAr 5 (FIG. 1)",no effect on cutaneous lesions
same,effect on cutaneous lesions,[6],no effect on cutaneous lesions

# From patent US6288091A, “Antiherpes virus compounds and methods for their preparation and use” (Boehringer Ingelheim Ltd., priority 1999, dated 2001)
